According to US7776856B2, “Pharmaceutical compounds” (F. Hoffman-La Roche AG, priority 2004, dated 2010):

Tested on: Caco-2 cells
Experiment: Caco-2 permeability
Format: in vitro ADME
Conditions: Caco-2 bidirectional assay
Procedure: (iii) Caco-2 Permeability
Caco-2 cells were seeded onto Millipore Multiscreen plates at 1×10^5 cells/cm^2, and were cultured for 20 days. Assessment of compound permeability was subsequently conducted. The compounds were applied to the apical surface (A) of cell monolayers and compound permeation into the basolateral (B) compartment was measured. This was performed in the reverse direction (B-A) to investigate active transport. A permeability coefficient value, Papp, for each compound, a measure of the rate of permeation of the compound across the membrane, was calculated. Compounds were grouped into low Papp</=1.0×10^6 cm/s) or high Papp>/=1.0×10^6cm/s) absorption potential based on comparison with control compounds with established human absorption.
For assessment of a compound's ability to undergo active efflux, the ratio of basolateral (B) to apical (A) transport compared with A to B was determined. Values of B−A/A−B>/=1.0 indicated the occurrence of active cellular efflux. All of the compounds tested through the Caco-2 permeability screen had Papp values >/=[…].

B−A/A−B asymmetry index: less than 1.0
SMILES: CN1CCN(Cc2cc3nc(-c4cccc(O)c4)nc(N4CCOCC4)c3s2)CC1 [PI540]
